In US8912221B2, “Biaryl amide derivatives” (Hoffmann-La Roche Inc., priority 2010, dated 2014):

Tests used:
Bradykinin-1 receptor [1] = target: T1, Bradykinin-1 receptor (Homo sapiens (Human), UniProt P46663); assay: Receptor Binding Assay; conditions: membranes from CHO-K1 cells overexpressing Bradykinin-1 receptor; 6 nM [3H]Kallidin (Des Arg10, Leu9); read-out: B1R Binding Ki
Experimental: Binding assays were done with membranes from CHO-K1 cells overexpressing Bradykinin-1 receptor.
For binding, Bradykinin-1 receptor antagonist compounds were added in various concentrations in 50 mM Tris pH 7.4, 5 mM MgCl2 together with 6 nM Kallidin (Des Arg^10, Leu^9), [3,4-Prolyl-3,4-^3H(N)] (PerkinElmer, 1.85-4.44 TBq/mmol) to 40 μg membrane protein containing approximately 1 fmol Bradykinin-1 receptor and incubated for 15 min at 27° C. To determine non-specific binding 10 μM Lys-(Des-Arg^9)-Bradykinin (Bachem) was added. Membranes were harvested through GF/B (glass fiber filter; PerkinElmer) plates, equilibrated with 0.5% polyethylenimine, air dried at 50° C. for 2 hr. Radioactivity was determined by counting in a topcounter (NXT Packard). Specific binding was defined as total binding minus nonspecific binding and typically represents about 90-95% of the total binding. Antagonist activity is expressed as Ki: inhibitor concentration required for 50% inhibition of specific binding corrected for the concentration of the radioligand.

Bradykinin-1 receptor [2] = target: T1, Bradykinin-1 receptor; assay: Calcium Mobilization Assay; type: cell-based; conditions: GeneBLAzer Bradykinin (B1)-NFAT-bla CHO-K1 cells; antagonist activity, FLIPR; read-out: Ca mobilization IC50
Experimental: Calcium Mobilization Assay
GeneBLAzer® Bradykinin (B1)-NFAT-bla CHO-K1 cells (from Invitrogen) stably overexpressing the human bradykinin 1 receptor were cultured in DMEM (high glucose) supplemented with 10% dialysed FBS, 1% NEAA (non essential amino acids) 1% penicillin/streptomycin, 1% G418 and 0.1 mg/ml zeocin.
For the assay cells were grown overnight in 384-well black clear flat bottom polystyrene plates (Costar) at 37° C. at 5% CO2. After washing with DMEM, 20 mM Hepes, 2.5 mM probenecid, 0.1% BSA (DMEM assay buffer) cells were loaded with 4 μM Fluo-4 in the same DMEM assay buffer for 2 hours at 30° C. Excess dye was removed and cells were washed with DMEM assay buffer. 384-well compound plates were prepared with DMEM assay buffer/0.5% DMSO with or without various concentrations of test compounds. Usually compounds were tested for agonist and antagonist activity.
Test compounds were added to the assay plate and agonist activity was monitored as fluorescence for 80 seconds with a FLIPR (488 nm excitation; 510-570 nm emission; Molecular Devices). […] Increases in intracellular calcium are reported as maximum fluorescence after agonist exposure minus basal fluorescence before exposure. Antagonist activity is indicated as inhibitor concentration required for 50% inhibition of specific calcium increases.

T1 sequence (P46663 whole entry): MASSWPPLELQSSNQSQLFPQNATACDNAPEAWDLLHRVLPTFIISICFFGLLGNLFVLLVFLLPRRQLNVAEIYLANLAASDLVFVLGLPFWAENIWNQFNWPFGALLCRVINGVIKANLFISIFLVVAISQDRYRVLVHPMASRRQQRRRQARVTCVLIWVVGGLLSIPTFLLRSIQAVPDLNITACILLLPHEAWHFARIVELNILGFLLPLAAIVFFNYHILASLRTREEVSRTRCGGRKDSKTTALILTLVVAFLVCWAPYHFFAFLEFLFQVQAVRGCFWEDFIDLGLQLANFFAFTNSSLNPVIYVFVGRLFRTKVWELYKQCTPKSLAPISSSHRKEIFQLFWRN

| Compound | Ki (Bradykinin-1 receptor [1]) | IC50 (Bradykinin-1 receptor [2]) |
| --- | --- | --- |
| Cc1nc(-c2c(F)cc(Cl)cc2-c2cnc([C@@H](C)NC(=O)C3(NC(=O)c4cc(F)cc(C(F)(F)F)c4)COC3)c(F)c2)no1 [Example 1, 3-(3-Fluoro-5-trifluoromethyl-benzoylamino)-oxetane-3-carboxylic acid ((R)-1-{5-[5-chloro-3-fluoro-2-(5-methyl-[1,2,4]oxadiazol-3-yl)-phenyl]-3-fluoro-pyridin-2-yl}-ethyl)-amide] | 2.6 nM | 0.3 nM |
| Cc1nc(-c2c(F)cc(Cl)cc2-c2cnc([C@@H](C)NC(=O)C3(NC(=O)C(F)(F)F)COC3)c(F)c2)no1 [Example 2, 3-(2,2,2-Trifluoro-acetylamino)-oxetane-3-carboxylic acid ((R)-1-{5-[5-chloro-3-fluoro-2-(5-methyl-[1,2,4]oxadiazol-3-yl)-phenyl]-3-fluoro-pyridin-2-yl}-ethyl)-amide] | 11.9 nM | 1.2 nM |
| COC(=O)c1c(Cl)cccc1-c1ccc([C@@H](C)NC(=O)C2(NC(=O)C(F)(F)F)COC2)c(F)c1 [Example 6, 3-Chloro-3′-fluoro-4′-((R)-1-{[3-(2,2,2-trifluoro-acetylamino)-oxetane-3-carbonyl]-amino}-ethyl)-biphenyl-2-carboxylic acid methyl ester] | 6.5 nM | 2.2 nM |
| COC(=O)c1c(Cl)cccc1-c1ccc([C@@H](C)NC(=O)C2(NC(=O)CC(F)(F)F)COC2)c(F)c1 [Example 8, 3-Chloro-3′-fluoro-4′-((R)-1-{[3-(3,3,3-trifluoro-propionylamino)-oxetane-3-carbonyl]-amino}-ethyl)-biphenyl-2-carboxylic acid methyl ester] | 5.3 nM | 0.4 nM |
| Cc1cc(C(=O)NC2(C(=O)N[C@H](C)c3ncc(-c4cc(Cl)cc(Cl)c4OCC(F)F)cc3F)COC2)on1 [Example 9, 3-Methyl-isoxazole-5-carboxylic acid [3-((R)-1-{5-[3,5-dichloro-2-(2,2-difluoro-ethoxy)-phenyl]-3-fluoro-pyridin-2-yl}-ethylcarbamoyl)-oxetan-3-yl]-amide] | 5.1 nM | 1.1 nM |
| C[C@@H](NC(=O)C1(NC(=O)c2ccno2)COC1)c1ncc(-c2cc(Cl)cc(Cl)c2OCC(F)F)cc1F [Example 10, Isoxazole-5-carboxylic acid [3-((R)-1-{5-[3,5-dichloro-2-(2,2-difluoro-ethoxy)-phenyl]-3-fluoro-pyridin-2-yl}-ethylcarbamoyl)-oxetan-3-yl]-amide] | 4.7 nM | 3.3 nM |
| C[C@@H](NC(=O)C1(NC(=O)c2cncnc2)COC1)c1ncc(-c2cc(Cl)cc(Cl)c2OCC(F)F)cc1F [Example 11, Pyrimidine-5-carboxylic acid [3-((R)-1-{5-[3,5-dichloro-2-(2,2-difluoro-ethoxy)-phenyl]-3-fluoro-pyridin-2-yl}-ethylcarbamoyl)-oxetan-3-yl]-amide] | 2.6 nM | 0.8 nM |
| COCC(=O)NC1(C(=O)N[C@H](C)c2ncc(-c3cc(Cl)cc(F)c3-c3noc(C)n3)cc2F)COC1 [Example 17, 3-(2-Methoxy-acetylamino)-oxetane-3-carboxylic acid ((R)-1-{5-[5-chloro-3-fluoro-2-(5-methyl-[1,2,4]oxadiazol-3-yl)-phenyl]-3-fluoro-pyridin-2-yl}-ethyl)-amide] | 25 nM | 26.6 nM |
| COc1cc(C(=O)NC2(C(=O)N[C@H](C)c3ncc(-c4cc(Cl)cc(Cl)c4OCC(F)F)cc3F)COC2)on1 [Example 18, 3-Methoxy-isoxazole-5-carboxylic acid [3-((R)-1-{5-[3,5-dichloro-2-(2,2-difluoro-ethoxy)-phenyl]-3-fluoro-pyridin-2-yl}-ethylcarbamoyl)-oxetan-3-yl]-amide] | 3 nM | 1.1 nM |
| Cc1nc(-c2c(F)cc(Cl)cc2-c2cnc([C@@H](C)NC(=O)C3(NC(=O)c4nnc(C)o4)COC3)c(F)c2)no1 [Example 19, 5-Methyl-[1,3,4]oxadiazole-2-carboxylic acid [3-((R)-1-{5-[5-chloro-3-fluoro-2-(5-methyl-[1,2,4]oxadiazol-3-yl)-phenyl]-3-fluoro-pyridin-2-yl}-ethylcarbamoyl)-oxetan-3-yl]-amide] | 5.1 nM | 1.2 nM |

Compounds with a lower Ki (Bradykinin-1 receptor [1]), results first:

| Ki (Bradykinin-1 receptor [1]) | IC50 (Bradykinin-1 receptor [2]) | Compound |
| --- | --- | --- |
| 2.4 nM | 0.4 nM | Cc1nc(-c2c(F)cc(Cl)cc2-c2cnc([C@@H](C)NC(=O)C3(NC(=O)c4ccno4)COC3)c(F)c2)no1 [Example 3, Isoxazole-5-carboxylic acid [3-((R)-1-{5-[5-chloro-3-fluoro-2-(5-methyl-[1,2,4]oxadiazol-3-yl)-phenyl]-3-fluoro-pyridin-2-yl}-ethylcarbamoyl)-oxetan-3-yl]-amide] |
| 2.5 nM | 0.2 nM | Cc1cc(C(=O)NC2(C(=O)N[C@H](C)c3ncc(-c4cc(Cl)cc(F)c4-c4noc(C)n4)cc3F)COC2)on1 [Example 4, 3-Methyl-isoxazole-5-carboxylic acid [3-((R)-1-{5-[5-chloro-3-fluoro-2-(5-methyl-[1,2,4]oxadiazol-3-yl)-phenyl]-3-fluoro-pyridin-2-yl}-ethylcarbamoyl)-oxetan-3-yl]-amide] |
| 1.1 nM | 0.1 nM | Cc1nc(-c2c(F)cc(Cl)cc2-c2cnc([C@@H](C)NC(=O)C3(NC(=O)c4cncnc4)COC3)c(F)c2)no1 [Example 5, Pyrimidine-5-carboxylic acid [3-((R)-1-{5-[5-chloro-3-fluoro-2-(5-methyl-[1,2,4]oxadiazol-3-yl)-phenyl]-3-fluoro-pyridin-2-yl}-ethylcarbamoyl)-oxetan-3-yl]-amide] |
| 1.6 nM | 0.1 nM | COC(=O)c1c(Cl)cccc1-c1ccc([C@@H](C)NC(=O)C2(NC(=O)c3cncnc3)COC2)c(F)c1 [Example 7, 3-Chloro-3′-fluoro-4′-[(R)-1-({3-[(pyrimidine-5-carbonyl)-amino]-oxetane-3-carbonyl}-amino)-ethyl]-biphenyl-2-carboxylic acid methyl ester] |
| 0.8 nM | 0.1 nM | COC(=O)c1c(Cl)cccc1-c1ccc([C@@H](C)NC(=O)C2(NC(=O)c3ccno3)COC2)c(F)c1 [Example 12, 3-Chloro-3′-fluoro-4′-[(R)-1-({3-[(isoxazole-5-carbonyl)-amino]-oxetane-3-carbonyl}-amino)-ethyl]-biphenyl-2-carboxylic acid methyl ester] |
| 1 nM | 0.04 nM | COC(=O)c1c(Cl)cccc1-c1ccc([C@@H](C)NC(=O)C2(NC(=O)c3cc(C)no3)COC2)c(F)c1 [Example 13, 3-Chloro-3′-fluoro-4′-[(R)-1-({3-[(3-methyl-isoxazole-5-carbonyl)-amino]-oxetane-3-carbonyl}-amino)-ethyl]-biphenyl-2-carboxylic acid methyl ester] |
| 1.4 nM | 0.2 nM | COc1cc(C(=O)NC2(C(=O)N[C@H](C)c3ncc(-c4cc(Cl)cc(F)c4-c4noc(C)n4)cc3F)COC2)on1 [Example 14, 3-Methoxy-isoxazole-5-carboxylic acid [3-((R)-1-{5-[5-chloro-3-fluoro-2-(5-methyl-[1,2,4]oxadiazol-3-yl)-phenyl]-3-fluoro-pyridin-2-yl}-ethylcarbamoyl)-oxetan-3-yl]-amide] |
| 1.1 nM | 0.1 nM | COc1ncc(C(=O)NC2(C(=O)N[C@H](C)c3ncc(-c4cc(Cl)cc(F)c4-c4noc(C)n4)cc3F)COC2)cn1 [Example 15, 2-Methoxy-pyrimidine-5-carboxylic acid [3-((R)-1-{5-[5-chloro-3-fluoro-2-(5-methyl-[1,2,4]oxadiazol-3-yl)-phenyl]-3-fluoro-pyridin-2-yl}-ethylcarbamoyl)-oxetan-3-yl]-amide] |
| 1.6 nM | 0.4 nM | Cc1nc(-c2c(F)cc(Cl)cc2-c2cnc([C@@H](C)NC(=O)C3(NC(=O)c4snnc4C)COC3)c(F)c2)no1 [Example 16, 4-Methyl-[1,2,3]thiadiazole-5-carboxylic acid [3-((R)-1-{5-[5-chloro-3-fluoro-2-(5-methyl-[1,2,4]oxadiazol-3-yl)-phenyl]-3-fluoro-pyridin-2-yl}-ethylcarbamoyl)-oxetan-3-yl]-amide] |
| 1.6 nM | 0.4 nM | Cc1cc(C(=O)NC2(C(=O)N[C@H](C)c3ncc(-c4cc(Cl)cc(F)c4-c4nnn(C)n4)cc3F)COC2)on1 [Example 20, 3-Methyl-isoxazole-5-carboxylic acid [3-((R)-1-{5-[5-chloro-3-fluoro-2-(2-methyl-2H-tetrazol-5-yl)-phenyl]-3-fluoro-pyridin-2-yl}-ethylcarbamoyl)-oxetan-3-yl]-amide] |
